Assay results from ChEMBL document CHEMBL1130908, “Diastereoselective two-directional synthesis and cation transport ability of the central tristetrahydrofuranyl unit of meso polyether glabrescol as naturally occurring podand” (Bioorg Med Chem Lett, 1998).
In brackets after ≈: the same amount, converted by molar mass.

Test: Compound was evaluated for cytotoxic activity against KB cells.
Assay type: functional, cell-based
Conditions: Homo sapiens

Compound	IC50 [µg/mL]
CC(C)(O)/C=C/C[C@](C)(O)[C@H]1CC[C@@](C)([C@H]2CC[C@H]([C@]3(C)CC[C@H]([C@@](C)(O)C/C=C/C(C)(C)OO)O3)O2)O1	5.3 (≈ 9.8 µM)
CC(=O)O[C@@H](CC[C@@H](OC(C)=O)[C@]1(C)CC[C@H]([C@@](C)(O)CCC=C(C)C)O1)[C@@]1(C)CC[C@H]([C@@](C)(O)CCC=C(C)C)O1	> 100
CC(=O)O[C@@H](CC[C@@H](O)[C@]1(C)CC[C@H]([C@@](C)(O)CCC=C(C)C)O1)[C@@]1(C)CC[C@H]([C@@](C)(O)CCC=C(C)C)O1	0.52 (≈ 0.941 µM)
CC(C)=CCC[C@](C)(O)[C@H]1CC[C@](C)([C@@H]2CC[C@H]([C@]3(C)CC[C@@H]([C@](C)(O)CCC=C(C)C)O3)O2)O1	7 (≈ 14.2 µM)
